According to patent US9090655B2, “Low hemolytic antimicrobial peptide, pharmaceutical composition and use thereof” (priority 2010, dated 2015):
Where two headings read alike, the source gives them in different places. Where no end group is shown, it is not given here.

Columns and labels:
Assay type in all cases: cell-based
[1] = tested on: Staphylococcus epidermidis
Source text: (§1) The MIC values against various strains are shown in table 3, Pem-2251 L and Pem-2254 L have great microbial activity as well.

Bacillus cereus = tested on: Bacillus cereus
Source text: as §1

E. coli = tested on: E. coli
Source text: as §1

Pseudomonas aeruginosa = tested on: Pseudomonas aeruginosa
Source text: as §1

Staphylococcus aureus = tested on: Staphylococcus aureus
Source text: as §1

Bacillus pumilus = tested on: Bacillus pumilus
Source text: as §1

Bacillus substilis = tested on: Bacillus substilis
Source text: as §1

[2] = tested on: Pseudomonas aeruginosa (ATCC 27853)
Procedure: (§2) The in vitro antimicrobial activities of antimicrobial agents were tested using minimum inhibition concentration (MIC) tests. The MIC value is the lowest concentration of peptide at which the visible growth of test organisms was inhibited and reduced. The test strains herein were E. coli (ATCC 25922), Pseudomonas aeruginosa (ATCC 27853) and Staphylococcus aureus (ATCC 29213).
(§3) Overnight cultures of the test organisms were diluted to produce an inoculum containing approximately 10^5 colonies in Meuller-Hinton broth (MHB). Peptide solution with different concentrations was added to diluted culture of the test organisms. After 18 hours of incubation at 37° C., the results were assayed for turbidity as an indicator of cell growth. MIC values for the peptides were measured three times at different time points. […] On the other hand, modifications for primary or secondary structures without influencing their activity, such as acetylation, amidation, formylation, hydroxylation, lipid modification, methylation or phosphorylation, were performed herein.

E. coli (ATCC 25922) = tested on: E. coli (ATCC 25922)
Procedure: as §2, §3

[3] = tested on: human red blood cells (hRBC); experiment: Hemolytic assay; settings: for lysis percentage: hRBC 5% v/v, one hour at 37° C.
Procedure: Melittin, Pem-2252 L and Pem-2254 L were tested for hemolysis against human red blood cells (hRBC). […] The hRBCs with EDTA were rinsed 3 times with PBS (800×g, 10 min) and re-suspended in PBS. The hRBCs were diluted into 10% with phosphate-buffered saline and placed 50 μl into each eppendorf. The peptides dissolved in PBS were then added to 50 μl of 10% solution of hRBCs and incubated for an hour at 37° C. (final hRBC concentration, 5% v/v). The samples were centrifuged at 800 g for 10 min […]. Various concentrations of peptides were incubated with pretreated hRBC and the percentage of hemolysis determined (Percentage lysis, Zero hemolysis (blank) and 100% hemolysis were determined in PBS buffer and 1% Triton X-100). […] At 5 μg/ml, 50 μg/ml and 400 μg/ml, its lysis percentages were 0.45%, 1.52% and 16.35%, respectively.

[4] = tested on: Staphylococcus aureus (ATCC 29213)
Procedure: as §2, §3

[5] = tested on: outer membrane of E. coli; experiment: Outer membrane permeabilization, NPN uptake assay; settings: intact E. coli cells, NPN fluorescence
Procedure: The outer membrane permeabilization activity of the peptide variants was determined by the 1-N-phenylnaphthylamine (NPN) uptake assay, using intact cells of E. coli. […] Since NPN is hydrophobic, it provides a direct measurement of the degree of outer membrane permeability. E. coli take up little or no NPN in a general condition. […] Fluorescence would vary with the concentration of peptide. The steps of the embodiment were described as follow. One ml of overnight culture was used to inoculate 50 ml of media and incubated at 37° C. with shaking. The culture was permitted to grow to an OD600 of 0.4 to 0.6, cells were spun down at 3500 rpm for 10 minutes, washed, and re-suspended in buffer to an OD600 of 0.5. The OD600 was recorded, 1 ml of cells (OD600=0.5) was added to the cuvette and measured after 2-5 seconds. 20 μl NPN 0.5 mM, shaken to mix, was added and measured after 2-5 seconds. 10 ul antibiotic 100× desired final concentration was added, shaken to mix, and measured until the maximal value was reached within 1 to 5 minutes. The concentration of peptide leading to 50% of the maximum increase in NPN uptake was recorded as the P50. As results shown in table 4, all of the peptides were capable of interacting with membrane.

[6] = P. aeruginosa ATCC 27853, MHB, 18 hours at 37° C., mean of three
[7] = E. coli ATCC 25922, MHB, 18 hours at 37° C., mean of three
[8] = S. aureus ATCC 29213, MHB, 18 hours at 37° C., mean of three

| Compound | MIC ([2]; ATCC 27853, 18 h) | MIC (E. coli (ATCC 25922); ATCC 25922, 18 h) | MIC [2, 6] | MIC (E. coli (ATCC 25922); [7]) | MIC [4, 8] | MIC ([4]; ATCC 29213, 18 h) | other results |
| --- | --- | --- | --- | --- | --- | --- | --- |
| KKWRKWLKWLAKK-NH2 [Pem-2254 L, Lys Lys Trp Arg Lys Trp Leu Lys Trp Leu Ala Lys Lys] | 1.565 µg/mL | 1.565 µg/mL |  |  |  |  | MIC [1]: 1.565 µg/mL; MIC (Bacillus cereus): 6.25 µg/mL; MIC (E. coli): 1.565 µg/mL; MIC (Pseudomonas aeruginosa): 3.125 µg/mL; MIC (Staphylococcus aureus): 1.565 µg/mL; MIC (Bacillus pumilus): 3.125 µg/mL; MIC (Bacillus substilis): 3.125 µg/mL; lysis percentage ([3]; 5 μg/ml peptide): 0.45%; lysis percentage ([3]; 50 μg/ml peptide): 1.52%; lysis percentage ([3]; 400 μg/ml peptide): 16.35% |
| Lys Lys Trp Arg Lys Trp Leu Lys Trp Leu Ala Lys Lys (KKWRKWLKWLAKK; not fully specified (bridges); printed as Lys Lys Trp Arg Lys Trp Leu Lys Trp Leu Ala Lys Lys; also: cyclic topology, ring type not given here) [Pem-2254 C] |  |  | 25 µg/mL | 25 µg/mL | 50 µg/mL |  |  |
| Lys Lys Phe Arg Arg Phe Val Arg Phe Ile Ala Lys Lys (KKFRRFVRFIAKK; not fully specified (bridges); printed as Lys Lys Phe Arg Arg Phe Val Arg Phe Ile Ala Lys Lys; also: cyclic topology, ring type not given here) [Pem-2253 C] |  |  | 50 µg/mL | 50 µg/mL | 50 µg/mL |  |  |
| KFKRWLA-NH2 [Pem-1001 L, Lys Phe Lys Arg Trp Leu Ala] | 50 µg/mL | 50 µg/mL |  |  |  | 50 µg/mL | P50 (concentration of peptide leading to 50% of the maximum increase in NPN uptake) [5]: 6.25 µg/mL |
| KKWRAWLKWLAKK-NH2 [Pem-2251 L, Lys Lys Trp Arg Ala Trp Leu Lys Trp Leu Ala Lys Lys] | 6.25 µg/mL | 1.565 µg/mL |  |  |  | 12.5 µg/mL | P50 (concentration of peptide leading to 50% of the maximum increase in NPN uptake) [5]: 6.25 µg/mL; MIC [1]: 3.125 µg/mL; MIC (Bacillus cereus): 6.25 µg/mL; MIC (E. coli): 3.125 µg/mL; MIC (Pseudomonas aeruginosa): 6.25 µg/mL; MIC (Staphylococcus aureus): 3.125 µg/mL; MIC (Bacillus pumilus): 6.25 µg/mL; MIC (Bacillus substilis): 3.125 µg/mL |
| KKFRRFVRFIAKK-NH2 [Pem-2253 L, Lys Lys Phe Arg Arg Phe Val Arg Phe Ile Ala Lys Lys] | 12.5 µg/mL | 12.5 µg/mL |  |  |  | 12.5 µg/mL |  |
| Lys Lys Trp Arg Lys Trp Leu Arg Ala Ile Ala Lys Lys (KKWRKWLRAIAKK; not fully specified (bridges); printed as Lys Lys Trp Arg Lys Trp Leu Arg Ala Ile Ala Lys Lys; also: cyclic topology, ring type not given here) [Pem-2252 C] |  |  | >50 µg/mL | >50 µg/mL | >50 µg/mL |  |  |
| CC[C@H](C)[C@H](NC(=O)CN)C(=O)NCC(=O)N[C@@H](C)C(=O)N[C@H](C(=O)N[C@@H](CC(C)C)C(=O)N[C@@H](CCCCN)C(=O)N[C@H](C(=O)N[C@@H](CC(C)C)C(=O)N[C@H](C(=O)N[C@H](C(=O)NCC(=O)N[C@@H](CC(C)C)C(=O)N1CCC[C@H]1C(=O)N[C@@H](C)C(=O)N[C@@H](CC(C)C)C(=O)N[C@H](C(=O)N[C@@H](CO)C(=O)N[C@@H](Cc1c[nH]c2ccccc12)C(=O)N[C@H](C(=O)N[C@@H](CCCCN)C(=O)N[C@@H](CCCNC(=N)N)C(=O)N[C@@H](CCCCN)C(=O)N[C@@H](CCCNC(=N)N)C(=O)N[C@@H](CCC(N)=O)C(=O)N[C@@H](CCC(N)=O)C(N)=O)[C@@H](C)CC)[C@@H](C)CC)[C@@H](C)O)[C@@H](C)O)C(C)C)C(C)C [Melittin, reference compound] |  |  |  |  |  |  | lysis percentage ([3]; 5 μg/ml peptide): 50%; lysis percentage ([3]; 50 μg/ml peptide): 100%; lysis percentage ([3]; 400 μg/ml peptide): 100% |
| Lys Lys Trp Arg Ala Trp Leu Lys Trp Leu Ala Lys Lys (KKWRAWLKWLAKK; not fully specified (bridges); printed as Lys Lys Trp Arg Ala Trp Leu Lys Trp Leu Ala Lys Lys; also: cyclic topology, ring type not given here) [Pem-2251 C] |  |  | 25 µg/mL | 25 µg/mL | 50 µg/mL |  |  |
| Lys Phe Lys Arg Trp Leu Ala (KFKRWLA; not fully specified (bridges); printed as Lys Phe Lys Arg Trp Leu Ala; also: cyclic topology, ring type not given here) [Pem-1001 C] |  |  | >50 µg/mL | >50 µg/mL | >50 µg/mL |  |  |
| KWKIWLK-NH2 [Pem-1003 L, Lys Trp Lys Ile Trp Leu Lys] | 12.5 µg/mL | 25 µg/mL |  |  |  | 12.5 µg/mL |  |
| KKWRKWLRAIAKK-NH2 [Pem-2252 L, Lys Lys Trp Arg Lys Trp Leu Arg Ala Ile Ala Lys Lys] | 25 µg/mL | 25 µg/mL |  |  |  | 25 µg/mL | lysis percentage ([3]; 5 μg/ml peptide): 3.12%; lysis percentage ([3]; 5 μg/ml peptide, listed as Pem-2252): 0.45%; lysis percentage ([3]; 50 μg/ml peptide): 9.82%; lysis percentage ([3]; 50 μg/ml peptide, listed as Pem-2252): 1.52%; lysis percentage ([3]; 400 μg/ml peptide): 37.66%; lysis percentage ([3]; 400 μg/ml peptide, listed as Pem-2252): 16.35%; hemolytic activity against hRBC, in words ([3]; compared with other antimicrobial peptides): less hemolytic against hRBC than other antimicrobial peptides |
| Lys Phe Arg Ala Trp Val Arg (KFRAWVR; not fully specified (bridges); printed as Lys Phe Arg Ala Trp Val Arg; also: cyclic topology, ring type not given here) [Pem-1002 C] |  |  | >50 µg/mL | >50 µg/mL | >50 µg/mL |  |  |
